In patent US10245261B2, “Substituted indol-5-ol derivatives and their therapeutic applications” (NantBioScience, Inc., priority 2013, dated 2019):
Where two headings read alike, the source gives them in different places.

Experiments:
IR(h), activated = IR(h), activated (Homo sapiens, UniProt P06213); experiment: KinaseProfiler kinase assay; format: biochemical
Fgr(h) = Fgr(h) (Homo sapiens, UniProt P09769); experiment: KinaseProfiler kinase assay; format: biochemical
PI3 Kinase (p120γ)(h) = PI3 Kinase (p120γ)(h) (Homo sapiens, UniProt P48736); experiment: KinaseProfiler kinase assay; format: biochemical
GCK(h) = GCK(h) (Homo sapiens, UniProt Q12851); experiment: KinaseProfiler kinase assay; format: biochemical
[1] = biological target: PI3 Kinase (p110β/p85α)(h) (Homo sapiens, UniProt P42338); experiment: KinaseProfiler kinase assay; format: biochemical
Lck(h) = Lck(h) (Homo sapiens, UniProt P06239); experiment: KinaseProfiler kinase assay; format: biochemical
PIP5K1γ(h) = PIP5K1γ(h) (Homo sapiens, UniProt O60331); experiment: KinaseProfiler kinase assay; format: biochemical
CK1γ1(h) = CK1γ1(h) (Homo sapiens, UniProt Q9HCP0); experiment: KinaseProfiler kinase assay; format: biochemical
CHK2(R145W)(h) = CHK2(R145W)(h) (Homo sapiens, UniProt O96017, R145W); experiment: KinaseProfiler kinase assay; format: biochemical
GSK3α(h) = GSK3α(h) (Homo sapiens, UniProt P49840); experiment: KinaseProfiler kinase assay; format: biochemical
CK1(y) = experiment: KinaseProfiler kinase assay; format: biochemical, yeast
JNK2α2(h) = JNK2α2(h) (Homo sapiens, UniProt P45984); experiment: KinaseProfiler kinase assay; format: biochemical
[2] = tested on: NCI 60 cancer cell line panel; experiment: NCI-60 DTP Human Tumor Cell Line Panel, SRB growth inhibition; format: cell-based; conditions: for GI50: Homo sapiens
Method: The human tumor cell lines of the cancer screening panel are grown in RPMI 1640 medium containing 5% fetal bovine serum and 2 mM L-glutamine. For a typical screening experiment, cells are inoculated into 96 well microtiter plates in 100 μL at plating densities ranging from 5,000 to 40,000 cells/well depending on the doubling time of individual cell lines. After cell inoculation, the microtiter plates are incubated at 37° C., 5% CO2, 95% air and 100% relative humidity for 24 h prior to addition of experimental drugs.
After 24 h, two plates of each cell line are fixed in situ with TCA, to represent a measurement of the cell population for each cell line at the time of drug addition (Tz). Experimental drugs are solubilized in dimethyl sulfoxide at 400-fold the desired final maximum test concentration and stored frozen prior to use. At the time of drug addition, an aliquot of frozen concentrate is thawed and diluted to twice the desired final maximum test concentration with complete medium containing 50 μg/ml gentamicin. Additional four, 10-fold or ½ log serial dilutions are made to provide a total of five drug concentrations plus control. Aliquots of 100 μl of these different drug dilutions are added to the appropriate microtiter wells already containing 100 μl of medium, resulting in the required final drug concentrations.
Following drug addition, the plates are incubated for an additional 48 h at 37° C., 5% CO2, 95% air, and 100% relative humidity. For adherent cells, the assay is terminated by the addition of cold TCA. Cells are fixed in situ by the gentle addition of 50 μl of cold 50% (w/v) TCA (final concentration, 10% TCA) and incubated for 60 minutes at 4° C. The supernatant is discarded, and the plates are washed five times with tap water and air dried. Sulforhodamine B (SRB) solution (100 μl) at 0.4% (w/v) in 1% acetic acid is added to each well, and plates are incubated for 10 minutes at room temperature. After staining, unbound dye is removed by washing five times with 1% acetic acid and the plates are air dried. Bound stain is subsequently solubilized with 10 mM trizma base, and the absorbance is read on an automated plate reader at a wavelength of 515 nm. For suspension cells, the methodology is the same except that the assay is terminated by fixing settled cells at the bottom of the wells by gently adding 50 μl of 80% TCA (final concentration, 16% TCA). Using the seven absorbance measurements [time zero, (Tz), control growth, (C), and test growth in the presence of drug at the five concentration levels (Ti)], the percentage growth is calculated at each of the drug concentrations levels. Percentage growth inhibition is calculated as: [(Ti−Tz)/(C−Tz)]×100 for concentrations for which Ti>/=Tz [(Ti−Tz)/Tz]×100 for concentrations for which Ti<Tz.
Three dose response parameters are calculated for each experimental agent.

Chain of CHK2(R145W)(h) (O96017 whole entry R145W): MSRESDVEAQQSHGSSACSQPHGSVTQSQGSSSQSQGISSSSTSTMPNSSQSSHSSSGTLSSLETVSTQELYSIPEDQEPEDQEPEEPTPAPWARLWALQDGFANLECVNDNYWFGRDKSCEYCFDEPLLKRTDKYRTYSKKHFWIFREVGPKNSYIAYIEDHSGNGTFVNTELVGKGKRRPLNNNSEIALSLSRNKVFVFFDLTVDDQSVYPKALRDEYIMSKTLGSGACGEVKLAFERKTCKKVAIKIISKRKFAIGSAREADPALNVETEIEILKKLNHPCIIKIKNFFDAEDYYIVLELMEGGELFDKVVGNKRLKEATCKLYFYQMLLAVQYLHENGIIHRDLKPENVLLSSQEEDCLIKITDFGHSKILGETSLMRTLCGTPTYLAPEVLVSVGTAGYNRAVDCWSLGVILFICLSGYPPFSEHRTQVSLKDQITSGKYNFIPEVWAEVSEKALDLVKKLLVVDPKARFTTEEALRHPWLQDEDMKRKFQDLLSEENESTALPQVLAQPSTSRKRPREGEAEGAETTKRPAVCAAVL
Chain of JNK2α2(h) (P45984 whole entry): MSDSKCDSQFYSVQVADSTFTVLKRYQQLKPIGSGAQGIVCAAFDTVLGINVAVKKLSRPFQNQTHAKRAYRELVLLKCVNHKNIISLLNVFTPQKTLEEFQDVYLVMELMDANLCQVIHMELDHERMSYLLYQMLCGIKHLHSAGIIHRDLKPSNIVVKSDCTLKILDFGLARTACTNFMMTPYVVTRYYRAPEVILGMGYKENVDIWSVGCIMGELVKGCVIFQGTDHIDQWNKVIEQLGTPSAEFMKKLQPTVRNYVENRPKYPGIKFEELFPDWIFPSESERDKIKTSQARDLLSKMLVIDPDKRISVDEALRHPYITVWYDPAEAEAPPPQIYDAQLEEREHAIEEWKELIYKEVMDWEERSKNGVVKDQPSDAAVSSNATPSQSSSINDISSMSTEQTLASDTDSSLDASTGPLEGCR
Chain of IR(h), activated (P06213 1005-1310): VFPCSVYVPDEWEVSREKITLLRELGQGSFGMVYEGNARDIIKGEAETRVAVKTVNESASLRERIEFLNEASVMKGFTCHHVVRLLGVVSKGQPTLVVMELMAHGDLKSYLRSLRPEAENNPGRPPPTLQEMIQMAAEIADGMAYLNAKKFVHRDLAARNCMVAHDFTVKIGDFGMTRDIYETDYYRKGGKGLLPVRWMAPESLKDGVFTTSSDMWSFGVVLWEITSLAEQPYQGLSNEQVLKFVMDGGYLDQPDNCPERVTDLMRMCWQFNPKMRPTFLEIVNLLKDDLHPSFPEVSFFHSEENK
Chain of PIP5K1γ(h) (O60331 whole entry): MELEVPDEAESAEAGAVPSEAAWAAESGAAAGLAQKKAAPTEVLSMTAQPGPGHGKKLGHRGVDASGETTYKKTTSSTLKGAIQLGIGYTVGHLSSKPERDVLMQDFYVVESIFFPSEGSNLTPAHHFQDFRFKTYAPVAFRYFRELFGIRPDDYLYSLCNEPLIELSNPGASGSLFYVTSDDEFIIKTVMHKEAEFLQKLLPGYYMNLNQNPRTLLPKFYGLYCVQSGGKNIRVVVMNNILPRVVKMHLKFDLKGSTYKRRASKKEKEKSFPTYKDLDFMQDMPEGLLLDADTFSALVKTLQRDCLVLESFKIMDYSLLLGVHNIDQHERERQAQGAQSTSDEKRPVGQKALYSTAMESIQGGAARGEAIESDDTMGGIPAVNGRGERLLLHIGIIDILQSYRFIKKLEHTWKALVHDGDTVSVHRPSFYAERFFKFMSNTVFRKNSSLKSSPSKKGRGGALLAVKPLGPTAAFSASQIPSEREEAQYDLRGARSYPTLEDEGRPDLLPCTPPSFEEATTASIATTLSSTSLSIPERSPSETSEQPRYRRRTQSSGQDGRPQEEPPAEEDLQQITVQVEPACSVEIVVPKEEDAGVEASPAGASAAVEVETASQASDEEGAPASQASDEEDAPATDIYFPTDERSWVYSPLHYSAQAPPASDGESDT
Chain of PI3 Kinase (p110β/p85α)(h) (P42338 whole entry): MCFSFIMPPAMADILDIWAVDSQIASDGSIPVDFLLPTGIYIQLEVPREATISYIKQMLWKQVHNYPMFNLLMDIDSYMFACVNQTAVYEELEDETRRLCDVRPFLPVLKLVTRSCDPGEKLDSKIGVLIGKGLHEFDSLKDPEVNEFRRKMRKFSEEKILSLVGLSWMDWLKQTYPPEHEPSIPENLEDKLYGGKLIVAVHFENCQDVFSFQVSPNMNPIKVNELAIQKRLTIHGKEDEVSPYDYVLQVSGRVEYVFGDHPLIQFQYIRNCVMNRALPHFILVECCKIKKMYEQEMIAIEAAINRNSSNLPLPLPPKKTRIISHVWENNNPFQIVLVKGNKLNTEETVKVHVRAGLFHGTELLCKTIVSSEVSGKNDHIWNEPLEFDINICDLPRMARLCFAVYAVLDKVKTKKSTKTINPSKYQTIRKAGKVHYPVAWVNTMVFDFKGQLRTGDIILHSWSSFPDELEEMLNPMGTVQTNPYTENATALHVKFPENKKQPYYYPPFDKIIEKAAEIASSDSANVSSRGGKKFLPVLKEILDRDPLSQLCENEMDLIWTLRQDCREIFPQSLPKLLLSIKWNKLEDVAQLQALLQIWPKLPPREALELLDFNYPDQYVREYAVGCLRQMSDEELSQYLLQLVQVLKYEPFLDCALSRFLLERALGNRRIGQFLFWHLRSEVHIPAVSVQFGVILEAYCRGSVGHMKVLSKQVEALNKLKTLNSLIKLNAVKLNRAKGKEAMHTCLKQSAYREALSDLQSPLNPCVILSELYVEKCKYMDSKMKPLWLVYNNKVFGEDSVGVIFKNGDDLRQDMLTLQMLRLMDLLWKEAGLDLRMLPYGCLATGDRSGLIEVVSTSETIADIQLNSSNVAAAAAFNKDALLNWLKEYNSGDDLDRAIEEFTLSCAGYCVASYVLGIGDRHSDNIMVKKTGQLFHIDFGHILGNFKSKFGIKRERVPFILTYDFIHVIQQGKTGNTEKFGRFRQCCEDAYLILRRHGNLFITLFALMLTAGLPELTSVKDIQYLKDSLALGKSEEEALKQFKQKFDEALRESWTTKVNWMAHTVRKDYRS
Chain of PI3 Kinase (p110β/p85α)(h) (P27986 whole entry partner): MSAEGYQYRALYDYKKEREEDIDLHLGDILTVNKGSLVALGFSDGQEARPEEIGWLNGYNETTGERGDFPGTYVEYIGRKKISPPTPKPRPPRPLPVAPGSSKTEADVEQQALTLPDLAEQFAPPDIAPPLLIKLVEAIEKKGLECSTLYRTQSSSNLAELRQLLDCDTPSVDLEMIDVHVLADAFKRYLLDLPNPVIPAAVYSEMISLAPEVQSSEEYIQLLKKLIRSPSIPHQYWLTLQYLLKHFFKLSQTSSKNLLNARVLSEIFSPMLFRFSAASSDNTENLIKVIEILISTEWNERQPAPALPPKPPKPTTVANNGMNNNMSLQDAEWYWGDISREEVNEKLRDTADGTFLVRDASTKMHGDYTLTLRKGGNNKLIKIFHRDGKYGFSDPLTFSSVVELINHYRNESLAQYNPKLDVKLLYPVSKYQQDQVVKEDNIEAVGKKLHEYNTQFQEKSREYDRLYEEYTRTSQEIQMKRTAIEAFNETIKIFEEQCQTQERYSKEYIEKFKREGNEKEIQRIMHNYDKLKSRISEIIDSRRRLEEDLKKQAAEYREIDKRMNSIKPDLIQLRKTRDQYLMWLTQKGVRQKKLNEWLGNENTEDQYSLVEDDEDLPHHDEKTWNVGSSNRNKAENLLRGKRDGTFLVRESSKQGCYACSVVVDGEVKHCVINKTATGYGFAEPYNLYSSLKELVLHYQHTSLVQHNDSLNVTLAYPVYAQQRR
Chain of PI3 Kinase (p120γ)(h) (P48736 whole entry): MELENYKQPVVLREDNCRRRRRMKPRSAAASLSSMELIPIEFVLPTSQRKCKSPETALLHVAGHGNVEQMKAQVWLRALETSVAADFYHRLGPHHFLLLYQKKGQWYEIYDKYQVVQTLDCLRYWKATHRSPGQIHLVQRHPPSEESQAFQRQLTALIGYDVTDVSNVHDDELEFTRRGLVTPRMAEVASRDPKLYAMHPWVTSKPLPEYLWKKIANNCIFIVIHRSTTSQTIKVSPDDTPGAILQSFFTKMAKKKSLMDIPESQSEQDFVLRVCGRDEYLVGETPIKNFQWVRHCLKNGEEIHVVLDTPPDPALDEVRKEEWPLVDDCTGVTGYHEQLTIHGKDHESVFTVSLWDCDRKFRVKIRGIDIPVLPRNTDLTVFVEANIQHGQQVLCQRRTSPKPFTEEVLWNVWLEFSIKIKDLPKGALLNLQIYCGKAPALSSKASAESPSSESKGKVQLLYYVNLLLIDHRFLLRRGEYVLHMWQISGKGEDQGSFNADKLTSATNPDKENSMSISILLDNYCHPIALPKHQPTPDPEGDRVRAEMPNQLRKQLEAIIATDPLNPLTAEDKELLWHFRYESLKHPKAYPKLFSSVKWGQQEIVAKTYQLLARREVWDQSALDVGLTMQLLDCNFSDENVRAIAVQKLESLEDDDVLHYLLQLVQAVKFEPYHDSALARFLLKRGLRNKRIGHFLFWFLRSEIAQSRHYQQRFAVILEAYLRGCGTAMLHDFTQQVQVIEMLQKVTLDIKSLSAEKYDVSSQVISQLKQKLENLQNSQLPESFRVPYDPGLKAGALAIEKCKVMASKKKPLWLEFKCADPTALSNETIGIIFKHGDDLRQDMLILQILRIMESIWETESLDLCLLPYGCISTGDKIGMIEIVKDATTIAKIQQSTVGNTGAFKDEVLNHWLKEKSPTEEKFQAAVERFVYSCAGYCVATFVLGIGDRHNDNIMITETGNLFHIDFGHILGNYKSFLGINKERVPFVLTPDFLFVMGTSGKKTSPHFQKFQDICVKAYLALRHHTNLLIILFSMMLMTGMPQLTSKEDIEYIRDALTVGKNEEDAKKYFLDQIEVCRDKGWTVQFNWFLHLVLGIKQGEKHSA

SMILES: Cc1cc2c(F)c(Oc3nc(Nc4cc(C5CC5)[nH]n4)cc(N4CCN(C)CC4)n3)ccc2[nH]1 [Compound 10]
- inhibition at 0.1 µM (IR(h), activated): 73%
- inhibition at 0.1 µM (Fgr(h)): 97%
- inhibition at 0.1 µM (PI3 Kinase (p120γ)(h)): -2%
- inhibition at 0.1 µM (GCK(h)): 79%
- inhibition at 0.1 µM [1]: 0%
- inhibition at 0.1 µM (Lck(h)): 99%
- inhibition at 0.1 µM (PIP5K1γ(h)): -8%
- inhibition at 0.1 µM (CK1γ1(h)): -4%
- inhibition at 0.1 µM (CHK2(R145W)(h)): 22%
- inhibition at 0.1 µM (GSK3α(h)): 28%
- % inhibition @ 0.1 μM (CK1(y)): 17%
- inhibition at 0.1 µM (JNK2α2(h)): -20%

SMILES: Cc1cc2c(F)c(Oc3nc(Nc4cc(C5CC5)[nH]n4)cc(N4CCNCC4)n3)ccc2[nH]1 [Compound 11, N-(5-cyclopropyl-1H-pyrazol-3-yl)-2-((4-fluoro-2-methyl-1H-indol-5-yl)oxy)-6-(piperazin-1-yl)pyrimidin-4-amine]
- inhibition at 0.1 µM (IR(h), activated): 71%
- inhibition at 0.1 µM (Fgr(h)): 100%
- inhibition at 0.1 µM (PI3 Kinase (p120γ)(h)): -1%
- inhibition at 0.1 µM (GCK(h)): 85%
- inhibition at 0.1 µM [1]: -1%
- inhibition at 0.1 µM (Lck(h)): 98%
- inhibition at 0.1 µM (PIP5K1γ(h)): -5%
- inhibition at 0.1 µM (CK1γ1(h)): -10%
- inhibition at 0.1 µM (CHK2(R145W)(h)): 6%
- inhibition at 0.1 µM (GSK3α(h)): 20%
- % inhibition @ 0.1 μM (CK1(y)): 4%
- inhibition at 0.1 µM (JNK2α2(h)): -16%

SMILES: C/C=C/c1cc(Nc2cc(N3CCN(C)CC3)nc(Oc3ccc4[nH]c(C)cc4c3F)n2)n[nH]1 [Compound 53]
- GI50 ([2]; 60 cell, range over the NCI 60 cell lines (Table 6), read-out: growth inhibition (GI50)): 10 to 1890 nM
- GI50 ([2]; 786-0, Renal Cancer, 786-0, read-out: GI50): 97.2 nM
- GI50 ([2]; A498, Renal Cancer, A498, read-out: GI50): < 10 nM
- GI50 ([2]; A549, Non-Small Cell Lung Cancer, A549/ATCC, read-out: GI50): 388 nM
- GI50 ([2]; ACHN, Renal Cancer, ACHN, read-out: GI50): 190 nM
- GI50 ([2]; BT-549, Breast Cancer, BT-549, read-out: GI50): 268 nM
- GI50 ([2]; CAKI-1, Renal Cancer, CAKI-1, read-out: GI50): 901 nM
- GI50 ([2]; CCRF-CEM, Leukemia, CCRF-CEM, read-out: GI50): < 10 nM
- GI50 ([2]; COLO 205, Colon Cancer, COLO 205, read-out: GI50): 85.9 nM
- GI50 ([2]; DU-145, Prostate Cancer, DU-145, read-out: GI50): 288 nM
- GI50 ([2]; HCC 2998, Colon Cancer, HCC-2998, read-out: GI50): 1420 nM
- GI50 ([2]; HCT-15, Colon Cancer, HCT-15, read-out: GI50): 397 nM
- GI50 ([2]; HCT-116, Colon Cancer, HCT-116, read-out: GI50): 40.1 nM
- GI50 ([2]; HL-60, Leukemia, HL-60(TB), read-out: GI50): 1430 nM
- GI50 ([2]; HOP-62, Non-Small Cell Lung Cancer, HOP-62, read-out: GI50): 91.4 nM
- GI50 ([2]; HOP-92, Non-Small Cell Lung Cancer, HOP-92, read-out: GI50): 22.4 nM
- GI50 ([2]; HT-29, Colon Cancer, HT29, read-out: GI50): 96.3 nM
- GI50 ([2]; Hs-578T, Breast Cancer, HS 578T, read-out: GI50): 13 nM
- GI50 ([2]; IGROV-1, Ovarian Cancer, IGROV1, read-out: GI50): 47.2 nM
- GI50 ([2]; K562, Leukemia, K-562, read-out: GI50): < 10 nM
- GI50 ([2]; KM12, Colon Cancer, KM12, read-out: GI50): < 10 nM
- GI50 ([2]; LOX IMVI, Melanoma, LOX IMVI, read-out: GI50): 34.3 nM
- GI50 ([2]; MCF7, Breast Cancer, MCF7, read-out: GI50): < 10 nM
- GI50 ([2]; MDA-MB-231, Breast Cancer, MDA-MB-231/ATCC, read-out: GI50): 227 nM
- GI50 ([2]; MDA-MB-435, Melanoma, MDA-MB-435, read-out: GI50): 354 nM
- GI50 ([2]; MDA-MB-468, Breast Cancer, MDA-MB-468, read-out: GI50): 39.2 nM
- GI50 ([2]; MOLT-4, Leukemia, MOLT-4, read-out: GI50): 48.1 nM
- GI50 ([2]; Malme-3M, Melanoma, MALME-3M, read-out: GI50): 132 nM
- GI50 ([2]; Melanoma, M14, read-out: GI50): 166 nM
- GI50 ([2]; NCI-H23, Non-Small Cell Lung Cancer, NCI-H23, read-out: GI50): 153 nM
- GI50 ([2]; NCI-H226, Non-Small Cell Lung Cancer, NCI-H226, read-out: GI50): < 10 nM
- GI50 ([2]; NCI-H322M, Non-Small Cell Lung Cancer, NCI-H322M, read-out: GI50): 915 nM
- GI50 ([2]; NCI-H460, Non-Small Cell Lung Cancer, NCI-H460, read-out: GI50): 86.9 nM
- GI50 ([2]; NCI-H522, Non-Small Cell Lung Cancer, NCI-H522, read-out: GI50): 72.2 nM
- GI50 ([2]; NCI/ADR-RES, Ovarian Cancer, NCI/ADR-RES, read-out: GI50): 1540 nM
- GI50 ([2]; OVCAR-3, Ovarian Cancer, OVCAR-3, read-out: GI50): 1070 nM
- GI50 ([2]; OVCAR-4, Ovarian Cancer, OVCAR-4, read-out: GI50): 1550 nM
- GI50 ([2]; OVCAR-5, Ovarian Cancer, OVCAR-5, read-out: GI50): 171 nM
- GI50 ([2]; OVCAR-8, Ovarian Cancer, OVCAR-8, read-out: GI50): 187 nM
- GI50 ([2]; Prostate Cancer, PC-3, read-out: GI50): 1270 nM
- GI50 ([2]; RPMI-8226, Leukemia, RPMI-8226, read-out: GI50): 1890 nM
- GI50 ([2]; RXF 393, Renal Cancer, RXF 393, read-out: GI50): 18.4 nM
- GI50 ([2]; SF530, CNS Cancer, SF-530, read-out: GI50): 65.8 nM
- GI50 ([2]; SF-268, CNS Cancer, SF-268, read-out: GI50): 87.7 nM
- GI50 ([2]; SF-295, CNS Cancer, SF-295, read-out: GI50): 91 nM
- GI50 ([2]; SK-MEL-2, Melanoma, SK-MEL-2, read-out: GI50): 1420 nM
- GI50 ([2]; SK-MEL-5, Melanoma, SK-MEL-5, read-out: GI50): 1270 nM
- GI50 ([2]; SK-MEL-28, Melanoma, SK-MEL-28, read-out: GI50): 342 nM
- GI50 ([2]; SK-OV-3, Ovarian Cancer, SK-OV-3, read-out: GI50): 421 nM
- GI50 ([2]; SN12C, Renal Cancer, SN12C, read-out: GI50): 48.7 nM
- GI50 ([2]; SNB-19, CNS Cancer, SNB-19, read-out: GI50): 205 nM
- GI50 ([2]; SNB-75, CNS Cancer, SNB-75, read-out: GI50): 15.8 nM
- GI50 ([2]; SW-620, Colon Cancer, SW-620, read-out: GI50): 44.1 nM
- GI50 ([2]; T47D, Breast Cancer, T-47D, read-out: GI50): 1030 nM
- GI50 ([2]; U-251, CNS Cancer, U251, read-out: GI50): 103 nM
- GI50 ([2]; UACC-62, Melanoma, UACC-62, read-out: GI50): 502 nM
- GI50 ([2]; UACC-257, Melanoma, UACC-257, read-out: GI50): 388 nM
- GI50 ([2]; UO-31, Renal Cancer, UO-31, read-out: GI50): 81 nM

SMILES: C/C=C/c1cc(Nc2cc(N3CCN(C)CC3)nc(Oc3cc(F)c4[nH]c(C)cc4c3F)n2)n[nH]1 [NTW-3456]
- antiproliferative activity ([2]; cell lines from the NCI 60 panel): Anti-proliferative activity
